The test system of assay [1] is Canis familiaris. Description: Inotropic activity of compound was evaluated as % increase in cardiac force at a dose of 8.75 (mg/Kg) in anesthetized dog. Format: functional, Canis lupus familiaris, Heart.
Assay [2] relates to Canis familiaris. Nature of the assay: Inotropic activity of compound was evaluated as % change in heart rate at a dose of 8.75 (mg/Kg) in anesthetized dog. In kind it is functional, Canis lupus familiaris.
For assay [3], the system named is Canis familiaris. Nature of the assay: Inotropic activity of compound was evaluated as % change in mean arterial blood pressure at a dose of 8.75 (mg/Kg) in anesthetized dog. In kind it is functional, Canis lupus familiaris.
The subject of assay [4] is Canis familiaris. Nature of the assay: Inotropic activity of compound was evaluated as % increase in cardiac force at a dose of 1.87 (mg/Kg) in anesthetized dog. In kind it is functional, Canis lupus familiaris, Heart.
For assay [5], the system named is Canis familiaris. Nature of the assay: Inotropic activity of compound was evaluated as % change in heart rate at a dose of 1.87 (mg/Kg) in anesthetized dog. In kind it is functional, Canis lupus familiaris.
The test system of assay [6] is Canis familiaris. Nature of the assay: Inotropic activity of compound was evaluated as % change in mean arterial blood pressure at a dose of 1.87 (mg/Kg) in anesthetized dog. Format: functional, Canis lupus familiaris.
The test system of assay [7] is Canis familiaris. Description: Inotropic activity of compound was evaluated as % increase in cardiac force at a dose of 10 (mg/Kg, intraduodenally) in anesthetized dog. Format: functional, Canis lupus familiaris, Heart.
Assay [8] deals with Canis familiaris. Nature of the assay: Inotropic activity of compound was evaluated as % change in heart rate at a dose of 10 (mg/Kg, intraduodenally) in anesthetized dog. Format: functional, Canis lupus familiaris.
In assay [9] the test system is Canis familiaris. Nature of the assay: Inotropic activity of compound was evaluated as % change in mean arterial blood pressure at a dose of 10 (mg/Kg, intraduodenally) in anesthetized dog. In kind it is functional, Canis lupus familiaris.
The subject of assay [10] is Canis familiaris. Description: Inotropic activity of compound was evaluated as % increase in cardiac force at a dose of 8.28 (mg/Kg) in anesthetized dog. In kind it is functional, Canis lupus familiaris, Heart.
Assay [11] relates to Canis familiaris. Nature of the assay: Inotropic activity of compound was evaluated as % change in heart rate at a dose of 8.28 (mg/Kg) in anesthetized dog. Format: functional, Canis lupus familiaris.
In assay [12] the test system is Canis familiaris. Description: Inotropic activity of compound was evaluated as % change in mean arterial blood pressure at a dose of 8.28 (mg/Kg) in anesthetized dog. In kind it is functional, Canis lupus familiaris.

13 compounds from ChEMBL document CHEMBL1125977, “2-aryl-1,2-dihydro-6,7-dimethoxyquinazoline-3-oxides with positive inotropic activity” (1991) can be followed below.

Consider `COc1cc2c(cc1OC)C(C)=[N+]([O-])C(c1ccccn1)N2` (stereo not given), for which the CF in the assay on Canis familiaris [1] is 45%. In the assay with Canis familiaris [2], the HR was found to be 16%. Also, in the assay on Canis familiaris [3], the MABP came out at 0%.
Take `COc1cc2c(cc1OC)C(C)=[N+]([O-])C(c1ccc(C)cc1)N2` (stereo not given): the CF in the assay on Canis familiaris [4] was determined as 45%. Further, in the assay with Canis familiaris [5], the HR stood at 10%. Moreover, the MABP in the assay with Canis familiaris [6] is reported as -6%.
For `COc1cc2c(cc1OC)C(C)=[N+]([O-])C(c1ccc3c(c1)OCO3)N2` (stereo not given), the CF with Canis familiaris [1] came out at 124%. In addition, the HR in the assay on Canis familiaris [2] came out at 39%. Moreover, the MABP with Canis familiaris [3] is on record as -38%.
As for `COc1cc2c(cc1OC)C(C)=[N+]([O-])C(c1c(F)c(F)c(F)c(F)c1F)N2` (stereo not given), in the assay on Canis familiaris [4], the CF is listed as 33%. For the same compound, the HR with Canis familiaris [5] was determined as 8%. Besides, the MABP in the assay with Canis familiaris [6] amounted to 2%.
Taken in the same sequence, the figures for `COc1cc2nc(-c3ccccc3)nc(C)c2cc1OC` were -14%, -4% and -20%.
In the case of `COc1cc2c(cc1OC)C(C)=[N+]([O-])C(c1cc3c(cc1[N+](=O)[O-])OCO3)N2` (stereo not given), the CF in the assay on Canis familiaris [1] came to 17%. The HR with Canis familiaris [2] came out at 4%. In the assay with Canis familiaris [3], the MABP was 0%.
Taken in the same sequence, the figures for `COc1cc2c(cc1OC)C(C)=[N+]([O-])C(c1ccco1)N2` (stereo not given) were 123%, 20% and -14%.
Regarding `COc1cc2c(cc1OC)C(C)=[N+]([O-])C(c1ccccc1)N2` (stereo not given), the CF with Canis familiaris [4] was determined as 42%; in the assay on Canis familiaris [7] it was 157%; in the assay on Canis familiaris [1], 137%. Further, the results for the HR with Canis familiaris [5], with Canis familiaris [8] and in the assay on Canis familiaris [2] were 12%, 37% and 47%, respectively. Also, the MABP with Canis familiaris [6] was -3%; in the assay on Canis familiaris [9] it was -15%; in the assay on Canis familiaris [3], -28%.
As for `COc1cc2c(cc1OC)C(C)=[N+]([O-])C(c1cccs1)N2` (stereo not given), the CF in the assay with Canis familiaris [1] stood at 75%. Further, the HR in the assay with Canis familiaris [2] worked out at 21%. Besides, the MABP with Canis familiaris [3] is -31%.
Taken in the same sequence, the figures for `COc1cc2nc(-c3ccccc3)[n+]([O-])c(C)c2cc1OC` were 29%, 5% and 0%.
On to `COc1cc2c(cc1OC)C(C)=[N+]([O-])C(c1cccc3c1OCO3)N2` (stereo not given), for which, in the assay with Canis familiaris [10], the CF turned out to be 45%. In the assay on Canis familiaris [11], the HR was 13%. The MABP in the assay on Canis familiaris [12] was determined as 10%.
Turning to `COc1cc2c(cc1OC)C(C)=[N+]([O-])C(c1ccncc1)N2` (stereo not given), the CF with Canis familiaris [1] was determined as 29%. The HR in the assay with Canis familiaris [2] is 8%. In addition, in the assay with Canis familiaris [3], the MABP is listed as 0%.
On to `COc1ccc(C2Nc3cc(OC)c(OC)cc3C(C)=[N+]2[O-])cc1` (stereo not given), for which the CF in the assay on Canis familiaris [4] is 29%. Besides, the HR with Canis familiaris [5] is 8%. Further, in the assay with Canis familiaris [6], the MABP is -6%.
